Test results taken from US20240294551A1 (AMGEN INC., priority 2022, published 2024).
Like-named read-outs stand apart in the source and are kept apart here.

Tests used:
[1] = molecular target: His-tagged KRAS G12D protein (Homo sapiens (Human), UniProt P01116, G12D); test: KRAS G12D TR-FRET Assay; format: binding; settings: read-out: KRAS G12D Binding IC50
Method in brief: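 His-tagged KRAS G12D (diluted to 20 nM in pH 7.4 HEPES buffer with 10 mM MgCl2 and 10 μM GDP) was preincubated with titrated compound for 30 min at room temperature. Biotinylated KRPep-2d peptide (diluted to 20 nM) was then added for 1 h, and displacement was monitored by TR-FRET.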

[2] = molecular target: GDP-bound KRAS protein (aa 1-169), containing both G12D and C118A amino acid substitutions (Homo sapiens (Human), UniProt P01116, C118A/G12D); test: KRAS G12D Coupled Nucleotide Exchange Assay; format: biochemical; settings: read-out: KRAS G12D Coupled Exchange IC50
[3] = system: Phosphorylation of ERK1/2 in AsPC-1 cells; test: Phospho-ERK1/2 MSD Assay; format: cell-based, human; settings: Homo sapiens, ASPC1, 2 h
Method in brief: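 Read-out: MSD electrochemiluminescent detection of phosphorylated ERK1/2 in whole-cell lysates, fitted to a 4-parameter logistic curve for IC50. Prior to lysis, AsPC-1 cells (25,000 per well) received a 2 h compound dose-response at 37 °C.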

AsPC-1 cells = test: AsPC-1 CTG Assay (CellTiter-Glo cell viability); format: cell-based, human; settings: Homo sapiens, ASPC1, 72 h, first value of the cell, read-out: G12D/C/V Cell Proliferation CTG (72 h) AsPC-1
Procedure: AsPC-1 and SW620 CTG Assay Protocols
AsPC-1 (human pancreatic adenocarcinoma; ATCC CRL-1682) or SW620 (human colon adenocarcinoma; ATCC CCL-227) cells were cultured in RPMI 1640 medium containing 10% fetal bovine serum and 1× penicillin/streptomycin/L-glutamine. Cells were seeded in 384-well plates at a density of 3.33E+04 cells/mL and incubated at 37° C., 5% CO2, overnight. Serially-diluted compound or DMSO was added to the cells, and plates were incubated at 37° C., 5% CO2 for 72 h. Cell viability was measured using a CellTiter-Glo® Luminescent Cell Viability Assay kit (Promega) according to the manufacturer's protocol. The luminescence signal of treated samples was normalized to DMSO control, and data were analyzed using a 4-parameter logistic model to calculate IC50 values.

[4] = read-out: 2 h p-ERK (AsPC-1 cells), IC50

GDP-bound KRAS protein (aa 1-169), containing both G12D and C118A amino acid substitutions, sequence (P01116 other isoform, or with tags, fused parts or gaps G12D/C118A): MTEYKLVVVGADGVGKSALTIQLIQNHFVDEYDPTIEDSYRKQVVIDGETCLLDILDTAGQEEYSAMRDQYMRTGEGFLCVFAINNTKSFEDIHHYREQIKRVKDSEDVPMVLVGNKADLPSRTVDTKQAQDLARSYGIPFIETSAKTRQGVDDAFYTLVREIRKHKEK
His-tagged KRAS G12D protein, sequence (P01116 other isoform, or with tags, fused parts or gaps G12D): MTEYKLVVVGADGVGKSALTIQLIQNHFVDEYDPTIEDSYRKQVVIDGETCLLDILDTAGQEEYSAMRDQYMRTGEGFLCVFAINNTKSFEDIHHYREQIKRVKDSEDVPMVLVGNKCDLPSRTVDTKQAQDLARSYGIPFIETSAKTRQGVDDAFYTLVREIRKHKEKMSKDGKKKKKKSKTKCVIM

Structure (SMILES)	IC50 [1] [nM]	IC50 [2] [nM]	IC50 [3, 4] [nM]	IC50 (AsPC-1 cells; AsPC-1, 72 h) [nM]	IC50 ([3]; read-out: 2 h p-ERK (AsPC-1 cells)) [nM]	IC50 (AsPC-1 cells; AsPC-1 cells (G12D), 72 h) [nM]
Cc1cc2[nH]ncc2c2c1CCC[C@@H](O)CC[C@@H]1CCCN(C1)c1nc(OC[C@@]34CCCN3C[C@H](F)C4)nc3c(F)c-2ncc13 [Example 237, (14R,17S)-30-Fluoro-24-(((2R,7aS)-2-fluorotetrahydro-1H-pyrrolo[1,2-a]pyrrol-7a(5H)-yl)methoxy)-9-methyl-5,6,21,23,25,29-hexaazahexacyclo[24.3.1.1˜17,21˜.0˜2,10˜.0˜3,7˜.0˜22,27˜]hentriaconta-1(30),2,4,7,9,22,24,26,28-nonaen-14-ol]	19	10	279	5000		
C[C@@]12CCCN(C1)c1nc(OC[C@@]34CCCN3C[C@H](F)C4)nc3c(F)c(ncc13)-c1cccc3ccc(F)c(c13)CC[C@@H](F)C(=O)N2 [Example 2, (15R,18R)-18,22,31-trifluoro-8-(((2R,7aS)-2-fluorotetrahydro-1H-pyrrolo[1,2-a]pyrrol-7a(5H)-yl)methoxy)-15-methyl-3,7,9,11,16-pentaazahexacyclo[19.7.1.1˜2,6˜.1˜11,15˜.0˜5,10˜.0˜25,29˜]hentriaconta-1(28),2(31),3,5,7,9,21,23,25(29),26-decaen-17-one]	50	24	1400	4110		
O=C1OCCc2c(Cl)cc3[nH]ncc3c2-c2cc3nc(OC[C@@]45CCCN4C[C@H](F)C5)nc(c3nn2)N2CCC[C@]3(C2)C[C@H](C3)O1 [Example 357, (1R,3S)-10-chloro-24-(((2R,7aS)-2-fluorotetrahydro-1H-pyrrolo[1,2-a]pyrrol-7a(5H)-yl)methoxy)-4,6-dioxa-13,14,19,20,23,25,27-heptaazaheptacyclo[25.3.1.1~1,3~.1~18,22~.0~9,17~.0~12,16~.0~21,26~]tritriaconta-9,11,14,16,18(32),19,21,23,25-nonaen-5-one]	14	10	234	1970		
O=C1NCCCc2c(Cl)cc3[nH]ncc3c2-c2ncc3c(nc(OC[C@@]45CCCN4C[C@H](F)C5)nc3c2F)N2CCCC[C@H](C2)O1 [Example 288]	7	2	102	427		
Fc1c2ncc3c(nc(OC[C@@]45CCCN4C[C@H](F)C5)nc13)N1CCC[C@H](C1)c1coc(n1)CCCc1c(Cl)cc3[nH]ncc3c1-2 [Example 157, (18R)-9-chloro-31-fluoro-25-(((2R,7aS)-2-fluorotetrahydro-1H-pyrrolo[1,2-a]pyrrol-7a(5H)-yl)methoxy)-15-oxa-5,6,22,24,26,30,33-heptaazaheptacyclo[25.3.1.1~14,17~.1~18,22~.0~2,10~.0~3,7~.0~23,28~]tritriaconta-1(31),2,4,7,9,14(33),16,23,25,27,29-undecaene]			7	60		
O[C@@H]1CCOCCc2c(Cl)cc3[nH]ncc3c2-c2ncc3c(nc(OC[C@@]45CCCN4C[C@H](F)C5)nc3c2F)N2CCC[C@@H]1C2 [Example 404, (16R,17R)-9-Chloro-30-fluoro-24-(((2R,7aS)-2-fluorotetrahydro-1H-pyrrolo[1,2-a]pyrrol-7a(5H)-yl)methoxy)-13-oxa-5,6,21,23,25,29-hexaazahexacyclo[24.3.1.1~17,21~.0~2,10~.0~3,7~.0~22,27~]hentriaconta-1(30),2,4,7,9,22,24,26,28-nonaen-16-ol]					236	1570
CN1CCN(c2nc3c4cnc(c(F)c4n2)-c2c(c(Cl)cc4[nH]ncc24)CCCOC(=O)O[C@@H]2COCCN3C2)CC1 [Example 347, (26S)-18-chloro-32-fluoro-4-(4-methyl-1-piperazinyl)-23,25,28-trioxa-1,3,5,9,14,15-hexaazahexacyclo[24.4.1.1~6,10~.0~2,7~.0~11,19~.0~12,16~]dotriaconta-2,4,6,8,10(32),11,13,16,18-nonaen-24-one]	27	7	200			
CN1C(=O)OCCCc2c(Cl)cc3[nH]ncc3c2-c2ncc3c(nc(OC[C@@]45CCCN4C[C@H](F)C5)nc3c2F)N2CCC[C@@H]1C2 [Example 74, (17R)-9-Chloro-30-fluoro-24-(((2R,7aS)-2-fluorotetrahydro-1H-pyrrolo[1,2-a]pyrrol-7a(5H)-yl)methoxy)-16-methyl-14-oxa-5,6,16,21,23,25,29-heptaazahexacyclo[24.3.1.1˜17,21˜.0˜2,10˜.0˜3,7˜.0˜22,27˜]hentriaconta-1(30),2,4,7,9,22,24,26,28-nonaen-15-one]	3	2	16			
Cc1cc2[nH]ncc2c2c1CCCC(F)C(=O)N[C@@H]1CCCCN(C1)c1nc(OC[C@@]34CCCN3C[C@H](F)C4)nc3c(F)c-2ncc13 (single isomer, unassigned) [Example 159]	6	5	79.6			

Results, then the compound that gave them:

IC50 [1] [nM]	IC50 [2] [nM]	IC50 [3, 4] [nM]	IC50 (AsPC-1 cells; AsPC-1, 72 h) [nM]	IC50 ([3]; read-out: 2 h p-ERK (AsPC-1 cells)) [nM]	IC50 (AsPC-1 cells; AsPC-1 cells (G12D), 72 h) [nM]	Structure (SMILES)
6	3	58.1	545			O=C1OCCc2c(Cl)cc3[nH]ncc3c2-c2ncc3c(nc(OC[C@@]45CCCN4C[C@@H](F)C5)nc3c2F)N2CCC[C@]3(C2)C[C@H](C3)O1 [Example 350, (1R,3S)-10-chloro-32-fluoro-24-(((2S,7aS)-2-fluorotetrahydro-1H-pyrrolo[1,2-a]pyrrol-7a(5H)-yl)methoxy)-4,6-dioxa-13,14,19,23,25,27-hexaazaheptacyclo[25.3.1.1~1,3~.1~18,22~.0~9,17~.0~12,16~.0~21,26~]tritriaconta-9,11,14,16,18(32),19,21,23,25-nonaen-5-one]
		20.8	23			O=C1OCCc2c(Cl)cc3[nH]ncc3c2-c2ncc3c(nc(OC[C@@]45CCCN4C[C@H](F)C5)nc3c2F)N2CCC[C@]3(C[C@@H](CO3)O1)C2 [Example 315, (1S,4S)-11-chloro-33-fluoro-25-(((2R,7aS)-2-fluorotetrahydro-1H-pyrrolo[1,2-a]pyrrol-7a(5H)-yl)methoxy)-2,5,7-trioxa-14,15,20,24,26,28-hexaazaheptacyclo[26.3.1.1~1,4~.1~19,23~.0~10,18~.0~13,17~.0~22,27~]tetratriaconta-10,12,15,17,19(33),20,22,24,26-nonaen-6-one]
14	8	245	1940			Cc1cc2[nH]ncc2c2c1CCCC(=O)OCCC1CCCN(C1)c1nc(OC[C@@]34CCCN3C[C@H](F)C4)nc3c(F)c-2ncc13 (stereo partly drawn) [Example 105]
4	2	342	1080			O=C1OCCCc2c(Cl)cc3[nH]ncc3c2-c2ncc3c(nc(OC[C@@]45CCCN4C[C@H](F)C5)nc3c2F)N2CCOC[C@]3(C2)C[C@@H](C3)O1 [Example 312, (1S,3S)-11-chloro-34-fluoro-25-(((2R,7aS)-2-fluorotetrahydro-1H-pyrrolo[1,2-a]pyrrol-7a(5H)-yl)methoxy)-4,6,31-trioxa-14,15,20,24,26,28-hexaazaheptacyclo[26.4.1.1~1,3~.1~19,23~.0~10,18~.0~13,17~.0~22,27~]pentatriaconta-10,12,15,17,19(34),20,22,24,26-nonaen-5-one]
		133	1450			CC12COCCN(C1)c1nc(OC[C@@]34CCCN3C[C@H](F)C4)nc3cc(nnc13)-c1c(c(Cl)cc3[nH]ncc13)CCCOC(=O)O2 (stereo in doubt) [Example 362, (26R)-18-chloro-4-(((2R,7aS)-2-fluorotetrahydro-1H-pyrrolo[1,2-a]pyrrol-7a(5H)-yl)methoxy)-26-methyl-23,25,28-trioxa-1,3,5,8,9,14,15-heptaazahexacyclo[24.4.1.1~6,10~.0~2,7~.0~11,19~.0~12,16~]dotriaconta-2,4,6(32),7,9,11,13,16,18-nonaen-24-one]
	2	8.2	103			[2H]C([2H])([2H])[C@@]12COCCN(C1)c1nc(OC[C@@]34CCCN3C[C@H](F)C4)nc3c(F)c(ncc13)-c1c(c(C)cc3[nH]ncc13)CCCOC(=O)O2 [Example 352, (26S)-32-fluoro-4-(((2R,7aS)-2-fluorotetrahydro-1H-pyrrolo[1,2-a]pyrrol-7a(5H)-yl)methoxy)-18-methyl-26-(~2~H_3_)methyl-23,25,28-trioxa-1,3,5,9,14,15-hexaazahexacyclo[24.4.1.1~6,10~.0~2,7~.0~11,19~.0~12,16~]dotriaconta-2,4,6,8,10(32),11,13,16,18-nonaen-24-one]
38	36	2460				Cc1cc2[nH]ncc2c2c1CCCOC(=O)O[C@@H]1C[C@H](F)CN(C1)c1nc(OC[C@@]34CCCN3C[C@H](F)C4)nc3c(F)c-2ncc13 (racemic) [Example 95]
